Biological target: T1, His-hMAGL (recombinant polyhistidine tagged human MAGL protein) (Homo sapiens, UniProt Q99685)
T1 construct: made in house; host or cells: E. coli BL21(DE3)
T1 sequence (Q99685 1-303): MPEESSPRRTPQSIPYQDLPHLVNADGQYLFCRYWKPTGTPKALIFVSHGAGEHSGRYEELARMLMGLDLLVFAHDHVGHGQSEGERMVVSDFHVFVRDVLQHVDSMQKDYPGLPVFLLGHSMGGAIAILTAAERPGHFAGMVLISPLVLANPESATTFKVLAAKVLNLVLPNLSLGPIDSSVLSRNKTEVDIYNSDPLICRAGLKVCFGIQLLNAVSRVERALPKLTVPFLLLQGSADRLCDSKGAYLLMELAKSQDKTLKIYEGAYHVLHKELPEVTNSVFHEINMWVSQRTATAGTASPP
Experiment: Measurement of MAGL inhibitory activity (arachidonic acid production from 2-arachidonylglycerol, RapidFire-mass spectrometry)
Assay type: biochemical
Conditions: MAGL inhibitory rate at 10 μM test compound; 60 min preincubation with His-hMAGL, 2-arachidonylglycerol substrate, 10 min reaction at room temperature
Method in brief: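 Inhibition (%) was derived from arachidonic acid levels relative to enzyme-free and compound-free groups. Product was measured by online C4 solid-phase extraction and triple-quadrupole MS in negative SRM mode, corrected by arachidonic acid-d8 (3 μM in the acetonitrile added). Substrate was 2-arachidonylglycerol; enzyme was His-tagged recombinant human MAGL.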

| SMILES | inhibition at 10 µM |
| --- | --- |
| O=C1COc2ccc(C(=O)N3CC(OCc4ccc(Cl)cc4Cl)C3)cc2N1 [Example 325, 6-((3-((2,4-dichlorobenzyl)oxy)azetidin-1-yl)carbonyl)-2H-1,4-benzoxazin-3(4H)-one] | 101% |
| Cc1cc(OCC2CN(C(=O)c3cc4c(cc3F)OCC(=O)N4)C2)ccc1F [Example 287, 7-fluoro-6-((3-((4-fluoro-3-methylphenoxy)methyl)azetidin-1-yl)carbonyl)-2H-1,4-benzoxazin-3(4H)-one] | 100% |

Further lines, results first:

| inhibition at 10 µM | SMILES |
| --- | --- |
| 97% | O=C1COc2cc(F)c(C(=O)N3CC(COc4ccc(Cl)cc4-c4nnco4)C3)cc2N1 [Example 175, 6-((3-((4-chloro-2-(1,3,4-oxadiazol-2-yl)phenoxy)methyl)azetidin-1-yl)carbonyl)-7-fluoro-2H-1,4-benzoxazin-3(4H)-one] |
| 102% | N#Cc1cc(Cl)ccc1OCC1CN(C(=O)c2cc3c(cc2F)OCC(=O)N3)C1 [Example 119, 5-chloro-2-((1-((7-fluoro-3-oxo-3,4-dihydro-2H-1,4-benzoxazin-6-yl)carbonyl)azetidin-3-yl)methoxy)benzonitrile] |
| 100% | O=C1COc2cc(F)c(C(=O)N3CC(COc4ccc(Cl)cc4-c4ccc(F)nc4)C3)cc2N1 [Example 204, 6-((3-((4-chloro-2-(6-fluoropyridin-3-yl)phenoxy)methyl)azetidin-1-yl)carbonyl)-7-fluoro-2H-1,4-benzoxazin-3(4H)-one] |
